Measurements from ChEMBL document CHEMBL4270550, “Synthesis of pyrazolo[3,4-d]pyrimidin-4(5H)-ones tethered to 1,2,3-triazoles and their evaluation as potential anticancer agents” (2018).

Experiments:
[1] = tested on: U-87 MG; assay: Antiproliferative activity against human U87 cells at 10 uM after 48 hrs by MTT assay relative to control; assay type: functional, U-87MG ATCC
[2] = tested on: C6; assay: Antiproliferative activity against rat C6 cells at 10 uM after 48 hrs by MTT assay relative to control; assay type: functional
[3] = tested on: U-87 MG; assay: Cell cycle arrest in human U87 cells assessed as accumulation of cells at S phase at 10 uM after 48 hrs by propidium iodide staining-based flow cytometric analysis (reference value: 8.95%); assay type: functional, U-87MG ATCC
[4] = tested on: U-87 MG; assay: Cell cycle arrest in human U87 cells assessed as accumulation of cells at G0/G1 phase at 50 uM after 48 hrs by propidium iodide staining-based flow cytometric analysis (reference value: 71.7%); assay type: functional, U-87MG ATCC
[5] = tested on: C6; assay: Antiproliferative activity against rat C6 cells after 48 hrs by MTT assay; assay type: functional, cell-based
[6] = tested on: U-87 MG; assay: Cell cycle arrest in human U87 cells assessed as accumulation of cells at S phase at 50 uM after 48 hrs by propidium iodide staining-based flow cytometric analysis (reference value: 8.95%); assay type: functional, U-87MG ATCC
[7] = tested on: U-87 MG; assay: Induction of apoptosis in human U87 cells assessed as increase in cleaved PARP levels by Western blot analysis; assay type: functional, cell-based; settings: U-87MG ATCC
[8] = tested on: U-87 MG; assay: Induction of apoptosis in human U87 cells assessed as increase in p53 levels by Western blot analysis; assay type: functional, cell-based; settings: U-87MG ATCC
[9] = tested on: U-87 MG; assay: Cell cycle arrest in human U87 cells assessed as accumulation of cells at G2/M phase at 50 uM after 48 hrs by propidium iodide staining-based flow cytometric analysis (reference value: 19.4%); assay type: functional, U-87MG ATCC
[10] = tested on: U-87 MG; assay: Induction of apoptosis in human U87 cells assessed as increase in caspase3 expression by Western blot analysis; assay type: functional, cell-based; settings: U-87MG ATCC
[11] = tested on: U-87 MG; assay: Cell cycle arrest in human U87 cells assessed as accumulation of cells at G0/G1 phase at 10 uM after 48 hrs by propidium iodide staining-based flow cytometric analysis (reference value: 71.7%); assay type: functional, U-87MG ATCC
[12] = tested on: U-87 MG; assay: Cell cycle arrest in human U87 cells assessed as accumulation of cells at S phase at 25 uM after 48 hrs by propidium iodide staining-based flow cytometric analysis (reference value: 8.95%); assay type: functional, U-87MG ATCC
[13] = tested on: U-87 MG; assay: Antiproliferative activity against human U87 cells after 48 hrs by MTT assay; assay type: functional, cell-based; settings: U-87MG ATCC
[14] = tested on: U-87 MG; assay: Induction of apoptosis in human U87 cells after 48 hrs by propidium iodide staining-based flow cytometric analysis; assay type: functional, cell-based; settings: U-87MG ATCC
[15] = tested on: U-87 MG; assay: Cell cycle arrest in human U87 cells assessed as accumulation of cells at G0/G1 phase at 25 uM after 48 hrs by propidium iodide staining-based flow cytometric analysis (reference value: 71.7%); assay type: functional, U-87MG ATCC
[16] = tested on: U-87 MG; assay: Cell cycle arrest in human U87 cells assessed as accumulation of cells at G2/M phase at 25 uM after 48 hrs by propidium iodide staining-based flow cytometric analysis (reference value: 19.4%); assay type: functional, U-87MG ATCC
[17] = tested on: U-87 MG; assay: Cell cycle arrest in human U87 cells assessed as accumulation of cells at G2/M phase at 10 uM after 48 hrs by propidium iodide staining-based flow cytometric analysis (reference value: 19.4%); assay type: functional, U-87MG ATCC

O=c1c2cnn(-c3ccc(Cl)cc3)c2ncn1Cc1cn(-c2ccccc2)nn1
Activity [1]: 40.98%

COc1ccccc1-n1cc(Cn2cnc3c(cnn3-c3ccc(Cl)cc3)c2=O)nn1
Activity [2]: 16.37%
Activity [1]: 32.98%

O=c1c2cnn(-c3ccc(Cl)cc3)c2ncn1Cc1cn(-c2ccccc2F)nn1
Activity [1]: 21.31%

COc1ccccc1-n1cc(Cn2cnc3c(cnn3-c3ccccc3)c2=O)nn1
Activity [2]: 4.91%
Activity [1]: 15.7%

Cc1ccc(-n2cc(Cn3cnc4c(cnn4-c4ccccc4)c3=O)nn2)cc1
Activity [2]: 16.87%
Activity [1]: 41.62%

O=c1c2cnn(-c3ccccc3)c2ncn1Cc1cn(-c2ccccc2F)nn1
Activity [1]: 46.35%

O=c1c2cnn(-c3ccc(Cl)cc3)c2ncn1Cc1cn(-c2cccc(Cl)c2)nn1
Activity [2]: 9.55%
Activity [1]: 47.29%

O=c1c2cnn(-c3ccccc3)c2ncn1Cc1cn(-c2cccc(Cl)c2)nn1
Activity [3]: 14.18%
Activity [4]: 62.6%
Activity [5]: Dose-dependent effect
Activity [6]: 37.4%
Activity [2]: 17.87%
Activity [7]: Dose-dependent effect
Activity [1]: 47.69%
Activity [8]: Dose-dependent effect
Activity [9]: 0.08%
Activity [10]: Dose-dependent effect
Activity [11]: 73.3%
Activity [12]: 17.13%
Activity [13]: Dose-dependent effect
Activity [14]: Dose-dependent effect
Activity [15]: 80.8%
Activity [16]: 2.03%
Activity [17]: 12.52%

Cc1ccccc1-n1cc(Cn2cnc3c(cnn3-c3ccccc3)c2=O)nn1
Activity [2]: 13.64%
Activity [1]: 21.32%

Cc1cccc(-n2cc(Cn3cnc4c(cnn4-c4ccccc4)c3=O)nn2)c1C
Activity [1]: 40.6%

Cc1cccc(-n2cc(Cn3cnc4c(cnn4-c4ccc(Cl)cc4)c3=O)nn2)c1C
Activity [2]: 35.91%
Activity [1]: 54.42%

O=c1c2cnn(-c3ccccc3)c2ncn1Cc1cn(-c2ccccc2)nn1
Activity [2]: 34.1%
Activity [1]: 52.34%
